Experimental findings from US12221631B2, “Engineered migrasome, method for preparing same, and uses thereof” (priority 2021, dated 2025) are described below.

Test [1] concerns Tspan4-GFP-expressing NRK cells. Particulars: sodium chloride in DPBS replaced by chloride of the cation at equal molar concentration; five-step hypotonic stimulation.
Experimental: Next, the effect of different cations on the formation of engineered migrasomes was tested.
For test [2] the test system is unchanged. Kind of test: Formation of engineered migrasomes after latrunculin A treatment and step-wise hypotonic stimulation. The class given is cell-based, rat. Particulars: latrunculin A 0.25, 0.5, 1 μM in DPBS 10 min, then three-step hypotonic stimulation; promotion dose-dependent. An excerpt:
The results after step-wise hypotonic treatment were shown in FIG. 2A, and the statistical results of the number of engineered migrasomes produced per cell were shown in FIG. 2B.

Take `[Cl-].[Cs+]` [cesium ions, cesium chloride]: in test [1], the “ability to promote the formation of engineered migrasomes” value (“ability to promote the formation” below) is recorded as “significantly stronger ability”.

As for `C[N+](C)(C)CCO.[Cl-]` [choline ions, choline chloride], the “ability to promote the formation” value in test [1] was “significantly stronger ability”.

With `C/C1=C/C(=O)O[C@@H]2C[C@@H](CC[C@H](C)/C=C\C=C\CC1)O[C@@](O)([C@@H]1CSC(=O)N1)C2` [latrunculin A], the “number of engineered migrasomes produced per cell” value in test [2] is “significantly promote an increase in the number of engineered migrasomes”.

For `[Cl-].[K+]` [potassium ions, potassium chloride], the “ability to promote the formation” value in test [1] is given as “significantly stronger ability”.

Regarding `[Cl-].[Na+]` [sodium ions, sodium chloride], the “ability to promote the formation” value in test [1] is “relatively weak ability”.
